Laboratory results from patent US20080262097A1, “Formulations” (priority 2005, published 2008).
≈ marks a conversion by molar mass, not a printed value. Read-outs that look alike come from different tables or passages of the source.

What was measured:
S. aureus CPHL EMRSA 15 [1] = assay: MBC assay; assay type: cell-based; details: Staphylococcus aureus
Procedure: (§1) Other staphylococcal strains were also tested, as described in Example 5 below. These included certain antibiotic resistant staphylococci, such as the methicillin resistant S. aureus (MRSA) strains EMRSA-15 and EMRSA-16, both available from the Central Public Health Laboratory (CPHL), Colindale, UK. These strains are resistant not only to all beta-lactams but also to a number of other antibiotics in clinical use, making them a serious threat to human health. They are also responsible for the majority (>95%) of hospital-acquired MRSA infections in the UK.
(§2) The staphylococci and enterococci were cultured and maintained on Mueller-Hinton Medium (agar and broth) at pH 7.2; they were incubated aerobically at 37° C. for 24 hours.
(§3) This assay, normally carried out after an MIC assay, determines the minimum concentration of a compound that is lethal to the micro-organism being tested.
(§4) These samples were then individually sub-cultured on non-selective agar medium, under the incubation conditions described above. Following incubation they were examined visually for bacterial growth.

S. aureus CPHL EMRSA 16 [2] = assay: MBC assay; assay type: cell-based; details: Staphylococcus aureus; S. aureus CPHL EMRSA 16 (resistance Met/β-lactams)
Procedure: as §1, §2, §3, §4

S. aureus CPHL EMRSA 15 [3] = assay: Disc diffusion assay (DDA); assay type: cell-based, Staphylococcus aureus; details: zone diameter, 200 μg per disc
Procedure: as §1, §2
(§5) A sterile paper disc was impregnated with a sample of the test compound and a minimum of 30 minutes allowed for the solvents to evaporate as far as possible. The disc was then placed on an agar plate onto which the test micro-organism had been inoculated. The plate was then incubated under the conditions described above, following which it was examined visually for signs of bacterial growth. If the test compound had antimicrobial activity, a circular zone of no growth would be obtained around the disc. The diameter of this zone of “inhibition” was measured using a ProtoCOL™ automated zone sizer (Synbiosis, Cambridge, UK). In general, a greater diameter and/or area of the zone of inhibition indicates a greater antimicrobial activity in the relevant test compound, although other factors such as test compound mobility through the agar gel may also influence the result.
(§6) The area of the zone of inhibition was calculated from the measured zone diameter (D) using the formula π(D/2)^2.

S. aureus CPHL EMRSA 16 [4] = assay: Disc diffusion assay (DDA); assay type: cell-based, Staphylococcus aureus; details: zone diameter, 200 μg per disc
Procedure: as §1, §2, §5, §6

P. acnes PRP-002 = assay: Disc diffusion assay (DDA); assay type: cell-based, Propionibacterium acnes; details: zone diameter, 200 μg per disc
Procedure: (§7) The Propionibacterium spp organisms were cultured and maintained on Wilkins-Chalgren Anaerobe Medium (agar and broth) at pH 6.0; cultures were incubated anaerobically at 37° C. for 72 hours.
as §5, §6

P. acnes PRP-003 = assay: Disc diffusion assay (DDA); assay type: cell-based, Propionibacterium acnes; details: zone diameter, 200 μg per disc
Procedure: as §7, §5, §6

P. acnes PRP-004 = assay: Disc diffusion assay (DDA); assay type: cell-based, Propionibacterium acnes; details: zone diameter, 200 μg per disc
Procedure: as §7, §5, §6

P. acnes PRP-007 = assay: Disc diffusion assay (DDA); assay type: cell-based, Propionibacterium acnes; details: zone diameter, 200 μg per disc
Procedure: as §7, §5, §6

P. acnes PRP-008 = assay: Disc diffusion assay (DDA); assay type: cell-based, Propionibacterium acnes; details: zone diameter, 200 μg per disc
Procedure: as §7, §5, §6

P. acnes PRP-017 = assay: Disc diffusion assay (DDA); assay type: cell-based, Propionibacterium acnes; details: zone diameter, 200 μg per disc
Procedure: as §7, §5, §6

P. acnes PRP-023 = assay: Disc diffusion assay (DDA); assay type: cell-based, Propionibacterium acnes; details: zone diameter, 200 μg per disc
Procedure: as §7, §5, §6

P. acnes PRP-026 = assay: Disc diffusion assay (DDA); assay type: cell-based, Propionibacterium acnes; details: zone diameter, 200 μg per disc
Procedure: as §7, §5, §6

P. acnes PRP-046 = assay: Disc diffusion assay (DDA); assay type: cell-based, Propionibacterium acnes; details: zone diameter, 200 μg per disc
Procedure: as §7, §5, §6

P. acnes PRP-059 = assay: Disc diffusion assay (DDA); assay type: cell-based, Propionibacterium acnes; details: zone diameter, 200 μg per disc
Procedure: as §7, §5, §6

P. acnes PRP-068 = assay: Disc diffusion assay (DDA); assay type: cell-based, Propionibacterium acnes; details: zone diameter, 200 μg per disc
Procedure: as §7, §5, §6

P. acnes PRP-101 = assay: Disc diffusion assay (DDA); assay type: cell-based, Propionibacterium acnes; details: zone diameter, 200 μg per disc
Procedure: as §7, §5, §6

P. acnes PRP-102 = assay: Disc diffusion assay (DDA); assay type: cell-based, Propionibacterium acnes; details: zone diameter, 200 μg per disc
Procedure: as §7, §5, §6

P. avidum ATCC 25577 = assay: MBC assay; assay type: cell-based; details: Cutibacterium avidum, ATCC25577
Procedure: as §7, §3, §4

P. granulosum NCTC 11865 = assay: MBC assay; assay type: cell-based; details: P. granulosum NCTC 11865 (resistance None)
Procedure: as §7, §3, §4

P. granulosum PRP-005 = assay: MBC assay; assay type: cell-based; details: P. granulosum PRP-005 (resistance MLSK)
Procedure: as §7, §3, §4

P. granulosum PRP-043 = assay: MBC assay; assay type: cell-based; details: P. granulosum PRP-043 (resistance MLS)
Procedure: as §7, §3, §4

P. granulosum PRP-044 = assay: MBC assay; assay type: cell-based; details: P. granulosum PRP-044 (resistance MLS)
Procedure: as §7, §3, §4

P. granulosum PRP-055 = assay: MBC assay; assay type: cell-based; details: P. granulosum PRP-055 (resistance None)
Procedure: as §7, §3, §4

SMILES	MBC (S. aureus CPHL EMRSA 16 [2])	DDA (S. aureus CPHL EMRSA 15 [3])	DDA (S. aureus CPHL EMRSA 16 [4])	DDA (P. acnes PRP-002)	DDA (P. acnes PRP-003)	DDA (P. acnes PRP-004)	DDA (P. acnes PRP-007)	DDA (P. acnes PRP-008)	DDA (P. acnes PRP-017)	DDA (P. acnes PRP-023)	DDA (P. acnes PRP-026)	DDA (P. acnes PRP-046)	DDA (P. acnes PRP-059)	DDA (P. acnes PRP-068)	DDA (P. acnes PRP-101)	DDA (P. acnes PRP-102)	MBC (P. granulosum NCTC 11865)	MBC (P. granulosum PRP-005)	MBC (P. granulosum PRP-043)	MBC (P. granulosum PRP-044)	other results
O=C(OOC(=O)c1ccccc1)c1ccccc1 [benzoyl peroxide]	250 µg/mL (≈ 1030 µM)	10.17 mm	10.80 mm	25.69 (±0.66) mm	25.69 (±0.66) mm	31.17 (±1.02) mm	23.88 (±1.42) mm	27.80 (±1.29) mm	23.28 (±0.48) mm	24.11 (±0.65) mm	26.52 (±0.65) mm	24.36 (±0.36) mm	23.49 (±0.48) mm	28.79 (±0.95) mm	25.73 (±1.99) mm	29.62 (±1.12) mm	15.6 µg/mL (≈ 64.4 µM)	15.6 µg/mL (≈ 64.4 µM)	62.5 µg/mL (≈ 258 µM)	31.2 µg/mL (≈ 129 µM)	MBC (S. aureus CPHL EMRSA 15 [1]): 125 to 250 µg/mL (≈ 516 to 1030 µM); MBC (P. avidum ATCC 25577): 62.5 µg/mL (≈ 258 µM); MBC (P. granulosum PRP-055): 15.6 µg/mL (≈ 64.4 µM)
CC(C)(C)c1cc(O)ccc1O [TBHQ, t-butyl hydroquinone]	3.9 µg/mL (≈ 23.5 µM)	55.14 mm	67.72 mm	28.42 (±0.95) mm	38.01 (±1.02) mm	30.32 (±1.97) mm	13.43 (±2.49) mm	14.47 (±0.90) mm	18.40 (±1.08) mm	23.90 (±0.00) mm	8.18 (±0.72) mm	17.46 (±1.58) mm	17.56 (±0.72) mm	20.89 (±1.08) mm	0.0 (±0.00) mm	23.80 (±0.10) mm	7.8 µg/mL (≈ 46.9 µM)	62.5 µg/mL (≈ 376 µM)	15.6 µg/mL (≈ 93.9 µM)	31.2 µg/mL (≈ 188 µM)	MBC (S. aureus CPHL EMRSA 15 [1]; S. aureus CPHL EMRSA 15 (resistance Met/β-lactams), read-out: MBC): 3.9 µg/mL (≈ 23.5 µM); MBC (P. avidum ATCC 25577; P. avidum ATCC 25577 (resistance None), read-out: MBC): 3.9 µg/mL (≈ 23.5 µM); MBC (P. granulosum PRP-055): 7.8 µg/mL (≈ 46.9 µM)
